# From paper PMC7369900 (International Journal of Molecular Sciences, 2020)
# Like-named read-outs stand apart in the source and are kept apart here.
# Experiments:
# P. aeruginosa ATCC 27853 = assay: microbe, parasite or virus in culture; format: cell-based, Pseudomonas aeruginosa; conditions: for MIC50 / MIC90: P. aeruginosa ATCC 27853, MHB
# Protocol: (§1) The antibacterial activity of TP10-NH2-based conjugates, as well as its constituents, was evaluated by microdilution assay in Mueller Hinton broth, MHB (Table 1). […] There are, however, some exceptions. […] Its activity against two other tested bacteria was somewhat lower though.
# (§2) The antibacterial activity (bacteriostatic: MIC and bactericidal: MBC) of the tested compounds was determined in MHB (Mueller Hinton Broth, Sigma Aldrich, St. Louis, MO, USA) using a serial two-fold dilution method in 96-well microtiter plates according to CLSI recommendations, described in M07-A10 document. The exact conditions have been described previously. All experiments were performed in three replicates. The MIC90 and MIC50 values were defined as the concentrations of compounds tested that caused a 90% or 50% reduction of growth, respectively, comparing to the drug-free control.
# [1] = tested on: yeasts of the Candida genus; assay: microbe, parasite or virus in culture; conditions: read-out: MIC against Candida strains
# E. coli ATCC 25922 = assay: microbe, parasite or virus in culture; format: cell-based, Escherichia coli; conditions: E. coli ATCC 25922, MHB
# Protocol: as §1, §2
# [2] = target: T1, yeast DNA topoisomerase II (Saccharomyces cerevisiae, UniProt P06786); assay: biochemical; format: biochemical
# T1 construct: purchased Inspiralis (Norwich, UK)
# T1 sequence (P06786 whole entry): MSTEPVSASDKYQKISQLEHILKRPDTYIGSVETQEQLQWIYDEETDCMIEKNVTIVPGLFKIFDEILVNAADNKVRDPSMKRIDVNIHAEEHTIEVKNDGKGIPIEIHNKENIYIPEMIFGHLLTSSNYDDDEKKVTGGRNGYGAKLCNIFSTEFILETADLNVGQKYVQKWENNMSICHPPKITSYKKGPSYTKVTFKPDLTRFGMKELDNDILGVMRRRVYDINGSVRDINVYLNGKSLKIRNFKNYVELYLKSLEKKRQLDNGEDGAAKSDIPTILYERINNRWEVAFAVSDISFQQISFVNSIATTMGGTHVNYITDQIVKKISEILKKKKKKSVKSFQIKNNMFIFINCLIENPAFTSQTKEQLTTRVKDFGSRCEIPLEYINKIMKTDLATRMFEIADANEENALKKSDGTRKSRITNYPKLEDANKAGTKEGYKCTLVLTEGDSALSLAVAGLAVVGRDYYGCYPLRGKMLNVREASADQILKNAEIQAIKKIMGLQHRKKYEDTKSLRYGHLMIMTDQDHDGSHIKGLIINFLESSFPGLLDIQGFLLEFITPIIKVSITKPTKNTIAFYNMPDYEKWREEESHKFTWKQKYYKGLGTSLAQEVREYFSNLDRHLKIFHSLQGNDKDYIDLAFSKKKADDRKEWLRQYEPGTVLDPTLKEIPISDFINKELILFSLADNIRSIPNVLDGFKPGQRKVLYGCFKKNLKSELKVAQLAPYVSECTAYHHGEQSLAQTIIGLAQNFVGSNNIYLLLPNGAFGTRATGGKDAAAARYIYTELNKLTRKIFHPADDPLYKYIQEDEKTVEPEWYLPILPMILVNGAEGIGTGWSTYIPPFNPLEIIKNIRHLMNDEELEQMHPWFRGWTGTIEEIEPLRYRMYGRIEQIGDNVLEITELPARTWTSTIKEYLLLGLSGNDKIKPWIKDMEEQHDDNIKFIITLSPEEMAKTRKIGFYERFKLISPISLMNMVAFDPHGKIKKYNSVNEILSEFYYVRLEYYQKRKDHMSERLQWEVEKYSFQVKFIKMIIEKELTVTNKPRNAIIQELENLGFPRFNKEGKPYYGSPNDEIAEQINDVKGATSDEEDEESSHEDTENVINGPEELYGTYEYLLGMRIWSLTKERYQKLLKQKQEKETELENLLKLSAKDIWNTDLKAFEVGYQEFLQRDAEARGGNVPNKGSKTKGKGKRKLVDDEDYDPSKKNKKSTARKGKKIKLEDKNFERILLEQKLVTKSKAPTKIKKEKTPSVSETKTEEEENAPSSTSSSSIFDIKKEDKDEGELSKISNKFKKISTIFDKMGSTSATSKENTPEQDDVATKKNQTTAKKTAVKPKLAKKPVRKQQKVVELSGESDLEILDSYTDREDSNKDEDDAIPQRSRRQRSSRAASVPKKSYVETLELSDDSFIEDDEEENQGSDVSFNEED
# [3] = tested on: Gram-positive and Gram-negative bacteria; format: cell-based; conditions: MHB, four bacteria
# Protocol: as §1, §2
# C. krusei DSM 6128 [4] = assay: microbe, parasite or virus in culture; conditions: Pichia kudriavzevii, DSM6128
# human red blood cells = assay: Hemolysis assay; conditions: for MHC50 (concentration causing 50% hemolysis): 1 h, 37 °C
# S. aureus ATCC 29213 = assay: microbe, parasite or virus in culture; format: cell-based, Staphylococcus aureus; conditions: S. aureus ATCC 29213, MHB
# Protocol: as §1, §2
# Hep G2 = assay: cells; format: cell-based, human; conditions: Hep G2, 72 h, MTT
# Protocol: (§3) Among the conjugates, LVXC-S-S-CTP10-NH2 (5) was the least cytotoxic. […] In the case of HEK 293 and LLC-PK1 cells, the IC50 values of 5 were nearly four times higher. […] Additionally, we noted that the cancer cells Hep G2 were less sensitive to the action of the given compounds than the non-cancer cells (HEK 293 and LLC-PK1).
# (§4) Cytotoxicity was assessed against three mammalian cell lines: LLC-PK1, Hep G2, and HEK 293. Multiwell (96–well) plates were seeded at 7000 cells/well in Medium 199 supplemented with 7.5% FBS, MEM Eagle’s medium supplemented with 10% FBS, or DMEM medium supplemented with 10% FBS, respectively. All media were supplemented with L-glutamine and antibiotics (penicillin/streptomycin). Cells were allowed to attach overnight. Drugs were dissolved in cell culture medium and added to wells in 100-µL aliquots of 2× concentrated solutions, in triplicates. To control wells, 100 µL of the medium were added. Cells were incubated with the studied compounds for 72 h at 37 °C and 95%/5% or 90%/10% (HEK 293 cells) CO2 atmosphere. Then, 20-µL aliquots of MTT solution in PBS (4 mg/mL) were added to all wells and plates were incubated further for 3 h in 37 °C. Formazan crystals formed were dissolved in 100 µL of DMSO and the absorbance of the solutions was measured using a multiwell plate reader (Spark, Tecan, Männedorf, Switzerland) at λ = 540 nm. Cytotoxicity was determined compared to the drug-free control. All experiments were performed in triplicates.
# HEK 293 [5] = assay: cells; format: cell-based, human; conditions: HEK 293, 72 h, MTT
# Protocol: as §3, §4
# [6] = tested on: S. epidermidis ATCC 12228; assay: microbe, parasite or virus in culture; format: cell-based, Staphylococcus epidermidis; conditions: S. epidermidis ATCC 12228, MHB
# Protocol: as §1, §2
# LLC-PK1 = assay: cells; format: cell-based, pig; conditions: LLC-PK1, 72 h, MTT
# Protocol: as §3, §4
# C. glabrata DSM 11226 [7] = assay: microbe, parasite or virus in culture; conditions: Nakaseomyces glabratus, DSM11226
# [8] = tested on: yeasts of the Candida genus
# C. krusei DSM 6128 [9] = tested on: C. krusei DSM 6128
# [10] = tested on: Staphylococcus aureus ATCC 25,923; set-up: method as in PMID 25891396; conditions: cited from earlier work
# [11] = tested on: S. aureus ATCC 25,923 cells; assay: Stability inside bacterial cells (LC-MS of cell lysate)
# E. coli ATCC 25,922 = tested on: E. coli ATCC 25,922; set-up: method as in PMID 25891396; conditions: cited from earlier work
# bacteria = assay: Influence of salts: antibacterial activity in MHB2 compared to MHB; format: cell-based; conditions: MHB2: Ca(II) 20–25 mg/L, Mg(II) 10–12.5 mg/L
# Protocol: Additionally, for selected compounds, the aspect of the influence of salts present in the medium on antimicrobial activity was evaluated. […] In the salt-enriched medium, the MIC values determined for TP10-NH2 were up to 40-fold higher than those found in MHB. The phenomenon of reduction of the growth inhibitory activity of antimicrobial peptides at a high salt concentration was previously evidenced by other researchers. It may cause severe limitations for AMPs’ usage as therapeutic agents because of the risk of potential inactivation by salts present in the human body.
# C. glabrata DSM 11226 [12] = tested on: C. glabrata DSM 11226
# HL-60 = assay: ROS generation (CM-H2DCFDA, flow cytometry); format: cell-based, human; conditions: positive cells in 24 h, class
# Protocol: (§5) In the positive controls treated with H2O2, the fraction of ROS-positive cells exceeded 75%. […] Strikingly, in HL-60, a biologically significant effect was observed almost immediately (after 15 min of incubation). The same was noted after 1 h in the HEK 293 cell line. […] Similarly, conjugates 4 and 5 generated ROS at the low level (less than 15% for HL-60 and less than 20% for HEK 293) (manuscript in preparation). […] For HL-60, the critical level of ROS was noted after 15 min of incubation.
# (§6) ROS generation activity was evaluated as described previously. Briefly, HEK 293 cells were seeded on 35-mm Petri dishes in the amount of 15,000 cells per plate for 24 h in DMEM medium. […] Positive controls contained 250 µM H2O2, while negative controls were without any additions. After 0.5, 2.5, 5.5, and 24 h of incubation at 37 °C, the CM-H2DCFDA molecular probe (Thermo Fischer Scientific, Waltham, USA) was added to the plates and incubation was continued for another 0.5 h. The HEK 293 cells were detached with 0.05% trypsin solution in PBS and HBSS (Hank’s Balanced Salt Solution) and suspended in fresh DMEM medium. All samples were additionally stained with 7-AAD (7-aminoactinomycin D, 0.8 µg/mL) and immediately analysed with a Guava easyCyte flow cytometer (Merc, Burlington, USA). The determinations were performed in triplicates.
# HEK 293 [13] = assay: ROS generation (CM-H2DCFDA, flow cytometry); format: cell-based, human; conditions: positive cells in 24 h, class
# Protocol: as §5, §6
# [14] = tested on: C. albicans Δopt1Δopt5Δptr2Δptr22
# [15] = Pseudomonas aeruginosa, ATCC27853
# [16] = Staphylococcus aureus, ATCC29213
# [17] = Staphylococcus epidermidis, ATCC12228
smiles,measurement,setting,value
"C[C@H]1COc2c(N3CCN(C)CC3)c(F)cc3c(=O)c(C(=O)O)cn1c23 [LVX, levofloxacin, reference compound]",MIC50,P. aeruginosa ATCC 27853; [15],0.8 µM
same,MIC90,P. aeruginosa ATCC 27853; [15],0.8 µM
same,MIC,[1],> 200 µM
same,MIC50,"E. coli ATCC 25922; Escherichia coli, ATCC25922",0.025 µM
same,MIC90,"E. coli ATCC 25922; Escherichia coli, ATCC25922",0.025 µM
same,Topoisomerase II inhibition at the highest used concentration,[2]; 500 µM,residual activity
same,MIC50 range over tested bacteria,[3],0.0125 to 0.8 µM
same,"MIC90, upper end of range over tested bacteria",[3],≤ 1.6 µM
same,MIC50,C. krusei DSM 6128 [4],> 200 µM
same,Hemolytic effect,human red blood cells,do not cause a hemolytic effect
same,MIC50,S. aureus ATCC 29213; [16],0.4 µM
same,MIC90,S. aureus ATCC 29213; [16],0.4 µM
same,IC50,"Hep G2; Homo sapiens, HepG2",> 200 µM
same,IC50,"HEK 293 [5]; Homo sapiens, HEK293",> 200 µM
same,MIC50,[6]; [17],0.8 µM
same,MIC90,[6]; [17],1.6 µM
same,IC50,LLC-PK1; Sus scrofa,> 200 µM
same,MIC50,C. glabrata DSM 11226 [7],> 200 µM
"CC[C@H](C)[C@H](NC(=O)[C@H](CCCCN)NC(=O)[C@H](CCCCN)NC(=O)[C@H](C)NC(=O)[C@H](CC(C)C)NC(=O)[C@H](C)NC(=O)[C@H](C)NC(=O)[C@H](CC(C)C)NC(=O)[C@H](C)NC(=O)[C@H](CCCCN)NC(=O)[C@H](CC(C)C)NC(=O)[C@H](CC(N)=O)NC(=O)[C@@H](NC(=O)[C@H](CCCCN)NC(=O)CNC(=O)[C@H](CC(C)C)NC(=O)[C@H](CC(C)C)NC(=O)[C@H](Cc1ccc(O)cc1)NC(=O)CNC(=O)[C@H](C)N)[C@@H](C)CC)C(=O)N[C@@H](CC(C)C)C(N)=O [TP10-NH2, transportan 10, reference compound]",MIC50,P. aeruginosa ATCC 27853,>100 µM
same,MIC90,P. aeruginosa ATCC 27853,>100 µM
same,MIC,"P. aeruginosa ATCC 27853; Pseudomonas aeruginosa, MHB",> 100 µM
same,MIC against C. albicans,[8],100 µM
same,MIC50,C. krusei DSM 6128 [9],>200 µM
same,MIC,"[10]; Staphylococcus aureus ATCC 25,923, converted from μg/mL",~ 7 μM
same,MIC,"[10]; Staphylococcus aureus ATCC 25,923",16 µg/mL
same,MIC50,E. coli ATCC 25922,1.6 µM
same,MIC90,E. coli ATCC 25922,1.6 µM
same,Concentration of complete inhibition of topoisomerase II activity,"[2]; pBR322 relaxation, 30 °C, 30 min",50 µM
same,MIC50,C. albicans SC 5314,100 µM
same,MIC90,C. albicans SC 5314,100 µM
same,Stability inside bacterial cells,[11],resistant inside the bacterial cells
same,MHC50 (concentration causing 50% hemolysis),human red blood cells,~200 µg/mL
same,MHC50 (concentration causing 50% hemolysis),human red blood cells; converted from μg/mL,~ 92 μM
same,MIC,"E. coli ATCC 25,922; E. coli ATCC 25,922, converted from μg/mL",~ 7 μM
same,MIC,"E. coli ATCC 25,922; E. coli ATCC 25,922",16 µg/mL
same,Influence of salts (MHB2 vs MHB) on antibacterial activity,bacteria,strongly affected
same,MIC in salt-enriched medium (MHB2) relative to MHB,bacteria,up to 40 fold
same,MIC50,S. aureus ATCC 29213,3.125 µM
same,MIC90,S. aureus ATCC 29213,3.125 µM
same,IC50,Hep G2,32.1 ± 1.65 µM
same,IC50,HEK 293 [5],25.1 ± 0.86 µM
same,MIC50,[6],1.6 µM
same,MIC90,[6],1.6 µM
same,IC50,LLC-PK1,22.7 ± 5.65 µM
same,MIC50,C. albicans Gu4,100 µM
same,MIC50,C. glabrata DSM 11226 [12],>200 µM
same,ROS HL-60,HL-60,++ (++ <10% positive cells in 24 h)
same,ROS HEK 293,HEK 293 [13],++ (++ <10% positive cells in 24 h)
same,MIC50,[14],100 µM
same,MIC90,[14],100 µM
